Experimental data reported in US5622688A, “Macrocyclic chelants, their chelates and uses thereof in the diagnostic field” (Dibra S.p.A., priority 1994, dated 1997).
Where two headings read alike, the source gives them in different places.

Key:
mice = test: Acute toxicity LD50 i.v. in mice; format: in vivo
Text: Some of the available data relative to Gd chelates of this invention are detailed in Example 4, together with a comparison with the known data of the following commercially available products: DOTAREM®, OMNISCAN®, PROHANCE®. The datum relative to Gd-DTPA-bismethylammide, Gd-DTPA-BMA, which is the active ingredient of OMNISCAN®, is also reported, even if there is remarkable difference in the LD50 values. Such a difference is known to be due to the simultaneous presence in OMNISCAN® of Gd-DTPA-BMA 500 mM, and of the complex of the same ligand with sodium and calcium, Na[CaDTPA-BMA], at a 25 mM concentration. Therefore the comparison of this last datum with those available for the compounds of this invention is more significant as far as determination homogeneity is concerned.

[1] = Osmolality of aqueous solutions; format: physicochemical
Charge = format: physicochemical; settings: Table I, own compound
[2] = cited from earlier work; for formal charge: background, gadolinium chelate before salification

Row | Compound | LD50 (mice) i.v. (mice) | formal charge [2] | other results
1 | CC(C(=O)NC(CCCO)(CCCO)CCCO)N1CCN(CC(=O)[O-])CCN(CC(=O)[O-])CCN(CC(=O)[O-])CC1.[Gd+3] (stereo not shown) [Example 1, Gadolinium complex of 10-[2-[[1,1-bis(3-hydroxypropyl)-4-hydroxybutyl]amino]-1-methylene-2-oxoethyl]-1,4,7,10-tetraazacyclododecan-1,4,7-triacetic acid] | 23.4 mmol/kg |  | 
2 | C=C(C(=O)NCCOCCO)N1CCN(CC(=O)[O-])CCN(CC(=O)[O-])CCN(CC(=O)[O-])CC1.[Gd+3] [Example 2, Gadolinium complex of 10-[2-[[2-(2-hydroxyethoxy)ethyl]amino]-1-(methylene)-2-oxoethyl]-1,4,7,10-tetraazacyclododecan-1,4,7-triacetic acid] | 37.6 mmol/kg |  | OSMOLALITY [1]: 855 mOsm/kg H2 O; CHARGE (Charge): non-ionic
3 | O=C([O-])CN1CCN(CC(=O)[O-])CCN(CC(=O)O)CCN(CC(=O)[O-])CC1.[Gd+3] [Gd-DOTA] |  | -1 | 
4 | O=C([O-])CN(CCN(CC(=O)[O-])CC(=O)O)CCN(CC(=O)[O-])CC(=O)O.[Gd+3] [Gd-DTPA] |  | -2 | 
5 | CNC(=O)CN(CCN(CCN(CC(=O)[O-])CC(=O)NC)CC(=O)[O-])CC(=O)[O-].[Gd+3] [GdDTPA-BMA, Gd-DTPA-bismethylamide] |  |  | CHARGE ([2]; Table I, from the data available on the product brochures): non-ionic
